The source of these data is patent publication US7071335B2, “2-pyridinyl-1-piperazine therapeutic agents useful for treating pain” (Euro-Celtique S.A., priority 2002, dated 2006).

The structures appear in SMILES notation.

Assay type in all cases: cell-based
In one test the target is T1, rat mGluR5 (Rattus norvegicus, UniProt P31424).
T1 construct: expressed in transfected cells; host or cells: CHO cells (CHO-rat mGluR5, kept under Geneticin selection)
The test can be described thus: CHO assay: calcium mobilization flux (FLIPR) in CHO-rat mGluR5 cells in the presence of glutamate. Conditions: at a concentration of 10 μM, 10 uM glutamate. The protocol: 40,000 CHO-rat mGluR5 cells/well were plated into 96 well plate (Costar 3409, Black, clear bottom, 96 well, tissue culture treated) for an overnight incubation in Dulbelcco's Modified Eagle's Medium (DMEM, pH 7.4) and supplemented with glutamine, 10% FBS, 1% Pen/Strep, and 500 ug/ml Geneticin. CHO-rat mGluR5 cells were washed and treated with Optimem medium and incubated for 1–4 hours prior to loading cells. […] The plates containing the CHO-rat mGluR5 cells were then transferred to Fluorometric Imaging Plate Reader (FLIPR) (commercially available from Molecular Devices Corporation of Sunnyvale, Calif.) for the assessment of calcium mobilization flux in the presence of glutamate and in the presence or absence of test compounds. After monitoring fluorescence for 15 seconds to establish a base line, DMSO solutions containing various concentrations of the test compound diluted in loading buffer (0.05 mL of 4× dilutions for the competition curves) were added to the cell plate and fluorescence was monitored for 2 minutes. […] Plate fluorescence is then monitored for an additional 60 seconds after agonist addition. […] In each experiment, fluorescence is monitored as a function of time and the data analyzed using Microsoft Excel and GraphPad Prism. […] In each experiment each data point was determined two times.
A general note: A change in cytosolic calcium serves as a functional read-out for many receptors and channels.

In test [1] the target is T2, Human VR1 Receptor (Homo sapiens, UniProt Q8NER1). The test can be described thus: Inhibition of pH-induced activation of VR1. The settings on record: mean ± SEM, n = number of experiments. The source says:
(§1) Methods for assaying compounds capable of inhibiting VR1 are well known to those skilled in the art, for example, those methods disclosed in U.S. Pat. No. 6,239,267 to Duckworth et al.; U.S. Pat. No. 6,406,908 to McIntyre et al.; or U.S. Pat. No. 6,335,180 to Julius et al.

The target in test [2] is T2, Human VR1 Receptor. The test is described as follows: Inhibition of capsaicin-induced activation of VR1. Conditions: mean ± SEM, n = number of experiments.
Excerpt: as §1

T2 sequence (Q8NER1 whole entry): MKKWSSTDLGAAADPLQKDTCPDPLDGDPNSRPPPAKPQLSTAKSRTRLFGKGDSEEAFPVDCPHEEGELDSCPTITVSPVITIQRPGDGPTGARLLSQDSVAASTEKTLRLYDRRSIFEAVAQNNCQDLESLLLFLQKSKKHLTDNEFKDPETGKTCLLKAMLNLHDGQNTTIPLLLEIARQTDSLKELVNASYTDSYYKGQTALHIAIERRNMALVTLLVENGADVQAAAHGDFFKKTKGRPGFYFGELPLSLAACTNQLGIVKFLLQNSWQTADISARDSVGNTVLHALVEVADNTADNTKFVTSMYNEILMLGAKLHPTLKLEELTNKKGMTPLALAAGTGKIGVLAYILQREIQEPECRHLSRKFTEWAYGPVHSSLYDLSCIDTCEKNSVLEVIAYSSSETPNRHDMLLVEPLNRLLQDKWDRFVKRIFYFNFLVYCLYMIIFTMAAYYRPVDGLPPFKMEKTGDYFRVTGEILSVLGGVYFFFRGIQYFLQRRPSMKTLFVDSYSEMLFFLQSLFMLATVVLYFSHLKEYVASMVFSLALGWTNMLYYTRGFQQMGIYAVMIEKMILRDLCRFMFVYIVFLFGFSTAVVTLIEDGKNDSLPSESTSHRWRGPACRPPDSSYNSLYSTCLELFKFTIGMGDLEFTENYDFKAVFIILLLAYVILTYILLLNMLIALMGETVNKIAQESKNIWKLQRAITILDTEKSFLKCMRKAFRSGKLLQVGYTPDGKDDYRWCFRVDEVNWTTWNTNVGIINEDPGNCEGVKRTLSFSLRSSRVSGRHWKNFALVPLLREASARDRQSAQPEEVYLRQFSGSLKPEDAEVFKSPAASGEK
T1 sequence (P31424 21-1203): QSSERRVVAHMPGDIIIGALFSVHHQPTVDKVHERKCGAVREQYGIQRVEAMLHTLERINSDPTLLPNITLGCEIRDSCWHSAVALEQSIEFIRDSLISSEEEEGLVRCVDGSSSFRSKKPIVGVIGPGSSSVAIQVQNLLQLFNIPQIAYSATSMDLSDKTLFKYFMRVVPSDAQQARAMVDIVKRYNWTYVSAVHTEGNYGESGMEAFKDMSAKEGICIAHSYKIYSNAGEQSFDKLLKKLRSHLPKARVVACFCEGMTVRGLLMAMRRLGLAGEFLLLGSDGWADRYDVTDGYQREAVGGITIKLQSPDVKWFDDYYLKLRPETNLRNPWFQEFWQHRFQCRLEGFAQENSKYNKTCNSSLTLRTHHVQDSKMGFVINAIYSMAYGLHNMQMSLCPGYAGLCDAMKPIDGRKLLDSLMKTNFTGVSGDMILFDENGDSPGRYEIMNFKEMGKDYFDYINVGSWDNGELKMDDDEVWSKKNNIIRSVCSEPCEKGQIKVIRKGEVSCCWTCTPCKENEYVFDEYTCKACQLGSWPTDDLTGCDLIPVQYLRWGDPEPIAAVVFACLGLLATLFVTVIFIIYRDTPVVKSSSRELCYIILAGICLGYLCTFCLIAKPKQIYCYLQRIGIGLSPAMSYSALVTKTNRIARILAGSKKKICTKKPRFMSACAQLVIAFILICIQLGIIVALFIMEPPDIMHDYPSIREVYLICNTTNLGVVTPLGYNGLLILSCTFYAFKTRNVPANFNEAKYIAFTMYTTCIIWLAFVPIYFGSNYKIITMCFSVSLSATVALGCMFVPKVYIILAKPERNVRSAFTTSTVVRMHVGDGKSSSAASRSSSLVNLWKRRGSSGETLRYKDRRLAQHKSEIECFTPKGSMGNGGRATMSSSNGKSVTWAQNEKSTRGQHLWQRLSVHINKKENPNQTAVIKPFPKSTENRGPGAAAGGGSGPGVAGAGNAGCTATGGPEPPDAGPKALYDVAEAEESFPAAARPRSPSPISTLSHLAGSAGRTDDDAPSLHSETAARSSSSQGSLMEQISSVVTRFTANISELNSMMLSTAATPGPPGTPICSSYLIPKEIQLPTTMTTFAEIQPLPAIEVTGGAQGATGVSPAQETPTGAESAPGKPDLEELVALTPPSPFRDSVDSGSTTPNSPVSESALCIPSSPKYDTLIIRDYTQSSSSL

As for `Cc1cccc(CCNC(=O)N2CCN(c3ncccc3Cl)C[C@H]2C)c1C`, the “inhibition of mGluR5” value on rat mGluR5 is “inhibits”.
What is called IC50 is the concentration at which inhibition is half-maximal. In the case of `CC(C)(C)c1ccc(NC(=O)N2CCN(c3ncccc3F)CC2)cc1`, the values for the IC50 at Human VR1 Receptor [1] and against Human VR1 Receptor [2] were 5.4 ± 2.5 nM and 1.3 ± 1.2 nM, respectively.
